Test results from US6274330A, “L-AP4 sensitive glutamate receptors” (ZymoGenetics, Inc., priority 1993, dated 2001).
“Also recorded” adds a separate entry of the source.

Key:
mGluR7 [1] = target: T1, mGluR7 (Rattus norvegicus, UniProt P35400); experiment: Inhibition of forskolin-stimulated cAMP production in BHK cells transfected with mGluR7; assay type: cell-based; conditions: for decrease in cAMP: agonist 100 μM; for inhibition of forskolin-stimulated cAMP production: forskolin 10 μM, 10 minutes, IBMX 1 mM; for agonist potency at mGluR7 compared with that previously observed for mGluR4 or mGluR6: cAMP inhibition, no full concentration-response analysis; for antagonism of the inhibition of cAMP produced by L-AP4: antagonist 1 mM
T1 construct: RNA-injected Xenopus oocytes
Procedure: FIG. 2 depicts the inhibition of forskolin-stimulated cAMP production by mGluR7 in baby hamster kidney cells. BHK cells transfected with mGluR7 were preincubated for 20 minutes in IBMX (1 mM), then incubated for 10 minutes with forskolin (10 μM) in the presence or absence of agonists or antagonists.
BHK cells were transfected with mGluR7 subcloned into pZEM229R. Plasmid pZEM229R is a pUC18-based expression vector containing an EcoRI cloning site between a mouse metallothionein-I promoter and an SV40 transcription terminator. The vector also contains an expression unit of the SV40 early promoter, mouse dihydrofolate reductase gene, and SV40 terminator. The two expression units are in opposite orientations with their respective promoters adjacent to each other. E. coli HB101 transformed with pZEM229R was deposited with American Type Culture Collection, 12301 Parklawn Drive, Rockville, MD on Sep. 28, 1993.
(§1) The cells were grown in 10% fetal calf serum and Dulbecco's minimal essential media (DMEM), and transfected clones were selected by methotrexate resistance. Resistant clones were assayed for the presence of mGluR7 RNA and protein. Confluent cells were assayed for cAMP production (Amersham) in the presence of IBMX (1 mM) isobutylmethylxanthine; cAMP levels were measured after 10 minute treatment with forskolin (10 μM) in the presence or absence of mGluR agonists or antagonists. Assays were performed in triplicate three times and the average value from these experiments expressed as the mean cAMP levels plus and minus the standard deviation. The basal cAMP production was subtracted from the stimulated levels and the inhibition was plotted as a percent of the forskolin-stimulated control.

mGluR4 = experiment: Forskolin-stimulated cAMP assay in a BHK clone expressing mGluR4; assay type: cell-based; conditions: L-AP4 1 mM
wild-type BHK cells = experiment: cAMP levels in wild-type BHK cells; assay type: cell-based, hamster
Procedure: as §1

mGluR7 [2] = target: T1, mGluR7; experiment: Calcium-activated chloride current in Xenopus oocytes injected with mGluR7 mRNA (two-electrode voltage clamp); assay type: cell-based
Procedure: (§2) For oocyte expression studies, xenopus laevis (Xenopus I, Ann Arbor) were anesthetized with tricaine and oocytes harvested using sterile technique. RNA transcripts from mGluR1 and mGluR7 were injected into Stage V-VI oocytes (1-100 ng RNA/oocyte) and the oocytes were assayed for production of a calcium-activated chloride current using a two-electrode voltage clamp. Harvesting of oocytes, solutions and recording methods were as described by Lester and colleagues (Dascal et al., Brain Res. 387: 201-209 [1986], which is incorporated herein by reference).

mGluR1 = experiment: Calcium-activated chloride current in Xenopus oocytes injected with mGluR1 mRNA (two-electrode voltage clamp); assay type: cell-based; conditions: sister oocytes injected with mGluR1 mRNA
Procedure: as §2

[3] = agonist 1 mM, BHK cells expressing mGluR7

T1 sequence (P35400 35-915): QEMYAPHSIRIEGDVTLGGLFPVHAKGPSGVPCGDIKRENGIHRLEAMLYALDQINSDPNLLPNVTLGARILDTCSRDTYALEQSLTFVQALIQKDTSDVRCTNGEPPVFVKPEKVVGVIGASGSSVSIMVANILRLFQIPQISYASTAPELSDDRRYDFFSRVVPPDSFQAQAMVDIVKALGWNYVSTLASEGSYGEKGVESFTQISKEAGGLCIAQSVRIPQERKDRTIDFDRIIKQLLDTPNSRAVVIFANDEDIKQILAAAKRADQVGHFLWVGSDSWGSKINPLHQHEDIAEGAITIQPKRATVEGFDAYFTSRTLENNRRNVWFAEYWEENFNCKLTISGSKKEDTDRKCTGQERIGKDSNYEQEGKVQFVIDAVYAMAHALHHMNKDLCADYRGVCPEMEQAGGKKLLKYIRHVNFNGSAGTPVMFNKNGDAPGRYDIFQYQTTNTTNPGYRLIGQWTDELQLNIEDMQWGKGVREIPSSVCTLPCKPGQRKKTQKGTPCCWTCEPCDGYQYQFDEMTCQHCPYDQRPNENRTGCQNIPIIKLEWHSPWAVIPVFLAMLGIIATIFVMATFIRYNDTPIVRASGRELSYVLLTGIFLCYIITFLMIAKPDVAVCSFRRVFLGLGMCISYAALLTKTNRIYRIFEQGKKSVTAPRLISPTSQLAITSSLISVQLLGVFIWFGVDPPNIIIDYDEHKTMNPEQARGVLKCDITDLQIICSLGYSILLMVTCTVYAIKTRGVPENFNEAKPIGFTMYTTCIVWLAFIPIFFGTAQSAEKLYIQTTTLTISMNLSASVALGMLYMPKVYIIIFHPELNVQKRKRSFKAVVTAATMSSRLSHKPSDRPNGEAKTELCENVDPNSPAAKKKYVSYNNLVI

In the case of `N[C@@H](CCP(=O)(O)O)C(=O)O` [L-AP4, L-2-amino-4-phosphonobutryic acid], the “decrease in cAMP” value (mGluR7 [1]; BHK cells expressing mGluR7) was “small decreases in cAMP which were not statistically significant”, the “inhibition of forskolin-stimulated cAMP production” value (mGluR7 [1]; [3]) was “largest inhibition; also recorded: inhibited” and the “agonist potency at mGluR7 compared with that previously observed for mGluR4 or mGluR6” value (mGluR7 [1]) was “much less potent agonists”. For the same compound, the “inhibition (cAMP) in BHK clone expressing mGluR4” value (mGluR4) was 45%, the “effect on basal cAMP levels” value (wild-type BHK cells) was “no significant effect” and the “effect on forskolin-stimulated cAMP levels” value (wild-type BHK cells) was “no significant effect”.

`N[C@@H](Cn1oc(=O)[nH]c1=O)C(=O)O` [quisqualate] was tested, and the “inhibition of forskolin-stimulated cAMP production” value (mGluR7 [1]; agonist 0.5 mM, BHK cells expressing mGluR7) was “less efficient; also recorded: much less effective”.

With `N[C@@H](CP(=O)(O)O)C(=O)O` [L-AP3, 2-amino-3-phosphonopropionic acid] the “antagonism of the inhibition of cAMP produced by L-AP4” value (mGluR7 [1]; BHK cells expressing mGluR7) was “did not antagonize” and the “antagonism of mGluR7-mediated cAMP inhibition” value (mGluR7 [1]; antagonist 3 mM, BHK cells expressing mGluR7) was “did not antagonize”.

In the case of `CC(N)(C(=O)O)c1ccc(C(=O)O)cc1` (racemic) [MCPG, RS-α-methyl-4-carboxyphenylglycine], the “antagonism of the inhibition of cAMP produced by L-AP4” value (mGluR7 [1]; BHK cells expressing mGluR7) was “did not antagonize”.

With `N[C@@]1(C(=O)O)CC[C@@H](C(=O)O)C1` [ACPD, (1S,3R)-1-aminocyclopentane-1,3-dicarboxylic acid] the “inhibition of forskolin-stimulated cAMP production” value (mGluR7 [1]; [3]) was “less efficient; also recorded: much less effective”.

With `N[C@@H](CCC(=O)O)C(=O)O` [glutamate] the “decrease in cAMP” value (mGluR7 [1]; BHK cells expressing mGluR7) was “small decreases in cAMP which were not statistically significant”, the “inhibition of forskolin-stimulated cAMP production” value (mGluR7 [1]; [3]) was “less efficient; also recorded: inhibited” and the “agonist potency at mGluR7 compared with that previously observed for mGluR4 or mGluR6” value (mGluR7 [1]) was “much less potent agonists”. For the same compound, the “glutamate response (calcium-activated chloride current)” value (mGluR7 [2]) was “no glutamate responses” and the “glutamate response (calcium-activated chloride current)” value (mGluR1) was “large calcium-activated chloride currents”.
